Patent publication US9708314B2, “Heterocyclic amide compound” (NISSAN CHEMICAL INDUSTRIES, LTD., priority 2013, dated 2017)

Tests used:
Format in all cases: in vivo
[1] = test system: Echinochloa oryzacola Vasing.; experiment: Test Example 2: herbicidal activity, application during weed generation in submerged conditions; conditions: Eighteenth Table
Text: (§1) 5 Herbicidal ratio of 90% or more (almost completely withered) 4 Herbicidal ratio of 70% or more and less than 90% 3 Herbicidal ratio of 40% or more and less than 70% 2 Herbicidal ratio of 20% or more and less than 40% 1 Herbicidal ratio of 5% or more and less than 20% 0 Herbicidal ratio of 5% or less (almost no effect) [Test Example 2] Herbicidal Activity Test by Application During Weed Generation in Submerged Conditions After alluvial soil was placed into 1/10000 are of Wagner pot, water was poured and mixed to form a submerged condition having a water depth of 4 cm. Seeds of Echinochloa oryzacola Vasing., Scirpus juncoides, and Monochoria vaginalis were sowed in a mixed manner in the above pot and the pot was placed in the greenhouse of 25° C. to 30° C. to grow the plants. When Echinochloa oryzacola Vasing., Scirpus juncoides, and Monochoria vaginalis were grown to one leaf stage to two leaf stage, the emulsion agent containing the compound of the present invention prepared in accordance with Formulation Example 2 was diluted with water so as to be a predetermined herbicide amount and the diluted compound was applied to the surface of the water. Three weeks after the herbicide application, effects on each plant were investigated in accordance with the criteria of Test Example 1. A: Echinochloa oryzicola Vasing., B: Scirpus juncoides, C: Monochoria vaginalis, D: Leptochloa chinensis, E: Cyperus difformis, F: Digitaria ciliaris, G: Setaria viridis, H: Echinochloa crus-galli var. crus-galli, I: Avena fatua, J: Alopecurus myosuroides, K: Lolium multiflorum Lam., L: Apera spica-venti., M: Abutilon theophrasti, N: Amaranthus retroflexus, O: Chenopodium album, P: Stellaria media, Q: Galium spurium, R: Veronica persica, a: transplanted Oryza sativa, b: directly sowed Oryza sativa, c: Zea mays, d: Glycine max, e: Triticum aestivum, f: Beta vulgaris ssp. vulgaris, and g: Brassica campestris L. The application herbicide amount (g/ha) means an amount that a concentration is adjusted so that, when an application amount is converted into per hectare (1 ha), the herbicide is applied by the number of grams (g) of the described value.

Scirpus juncoides = experiment: as above; conditions: Eighteenth Table
Text: as §1

Monochoria vaginalis = experiment: as above; conditions: Eighteenth Table
Text: as §1

Amaranthus retroflexus = experiment: Test Example 4: herbicidal effect by application to foliage (diluvial soil, plastic box); conditions: application to foliage, application herbicide amount 320 g/ha
Procedure, shortened: (§2)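 Seeds sown in sterilized diluvial soil, covered ~1.5 cm, grown 14 days in greenhouse at 25° C. to 30° C. Emulsion formulation diluted in water to set rate (g/ha) and sprayed onto stems and leaves. Effect scored visually 3 weeks later on 0–5 scale (5 = ≥90% herbicidal ratio, 0 = ≤5%).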

Stellaria media = experiment: as above; conditions: application to foliage, application herbicide amount 320 g/ha
Procedure, shortened: as §2

[2] = application herbicide amount 320 g/ha
[3] = application herbicide amount 280 g/ha

Row | Structure (SMILES) | A (Echinochloa oryzicola Vasing.) herbicidal ratio grade [1, 2] | B (Scirpus juncoides) herbicidal ratio grade (Scirpus juncoides; [2]) | C (Monochoria vaginalis) herbicidal ratio grade (Monochoria vaginalis; [2]) | N (Amaranthus retroflexus) herbicidal effect (Amaranthus retroflexus) | P (Stellaria media) herbicidal effect (Stellaria media) | A (Echinochloa oryzicola Vasing.) herbicidal ratio grade [1, 3] | B (Scirpus juncoides) herbicidal ratio grade (Scirpus juncoides; [3]) | C (Monochoria vaginalis) herbicidal ratio grade (Monochoria vaginalis; [3])
1 | Cc1nnc(NC(=O)c2ccc(C(F)(F)F)n3cnnc23)o1 [1-001] | 4 (Herbicidal ratio of 70% or more and less than 90%) | 4 (Herbicidal ratio of 70% or more and less than 90%) | 2 (Herbicidal ratio of 20% or more and less than 40%) | 3 (Herbicidal ratio of 40% or more and less than 70%) | 4 (Herbicidal ratio of 70% or more and less than 90%) | – | – | –
2 | Cc1nnc(NC(=O)c2ccc(C(F)(F)F)n3c(C)nnc23)o1 [1-002] | 3 (Herbicidal ratio of 40% or more and less than 70%) | 0 (Herbicidal ratio of 5% or less (almost no effect)) | 0 (Herbicidal ratio of 5% or less (almost no effect)) | 3 (Herbicidal ratio of 40% or more and less than 70%) | 5 (Herbicidal ratio of 90% or more (almost completely withered)) | – | – | –
3 | CCc1nnc(NC(=O)c2ccc(C(F)(F)F)n3c(C(C)C)nnc23)o1 [1-005] | 5 (Herbicidal ratio of 90% or more (almost completely withered)) | 1 (Herbicidal ratio of 5% or more and less than 20%) | 0 (Herbicidal ratio of 5% or less (almost no effect)) | 3 (Herbicidal ratio of 40% or more and less than 70%) | 1 (Herbicidal ratio of 5% or more and less than 20%) | – | – | –
4 | Cc1nnc(NC(=O)c2ccc(C(F)(F)F)n3c(C4CC4)nnc23)o1 [1-010] | 4 (Herbicidal ratio of 70% or more and less than 90%) | 1 (Herbicidal ratio of 5% or more and less than 20%) | 4 (Herbicidal ratio of 70% or more and less than 90%) | 5 (Herbicidal ratio of 90% or more (almost completely withered)) | 5 (Herbicidal ratio of 90% or more (almost completely withered)) | – | – | –
5 | CCC(CC)c1nnc2c(C(=O)Nc3nnc(C)o3)ccc(C(F)(F)F)n12 [1-011] | 5 (Herbicidal ratio of 90% or more (almost completely withered)) | 3 (Herbicidal ratio of 40% or more and less than 70%) | 3 (Herbicidal ratio of 40% or more and less than 70%) | 5 (Herbicidal ratio of 90% or more (almost completely withered)) | 5 (Herbicidal ratio of 90% or more (almost completely withered)) | – | – | –
6 | Cc1nnc(NC(=O)c2ccc(C(F)(F)F)n3c(-c4ccccc4)nnc23)o1 [1-012] | 2 (Herbicidal ratio of 20% or more and less than 40%) | 2 (Herbicidal ratio of 20% or more and less than 40%) | 2 (Herbicidal ratio of 20% or more and less than 40%) | 3 (Herbicidal ratio of 40% or more and less than 70%) | 4 (Herbicidal ratio of 70% or more and less than 90%) | – | – | –
7 | Cc1nnc(NC(=O)c2ccc(C(F)(F)F)n3c(Br)nnc23)o1 [1-014] | – | – | – | 5 (Herbicidal ratio of 90% or more (almost completely withered)) | 5 (Herbicidal ratio of 90% or more (almost completely withered)) | 2 (Herbicidal ratio of 20% or more and less than 40%) | 3 (Herbicidal ratio of 40% or more and less than 70%) | 0 (Herbicidal ratio of 5% or less (almost no effect))
8 | COCc1nnc2c(C(=O)Nc3nnc(C)o3)ccc(C(F)(F)F)n12 [1-015] | 4 (Herbicidal ratio of 70% or more and less than 90%) | 2 (Herbicidal ratio of 20% or more and less than 40%) | 1 (Herbicidal ratio of 5% or more and less than 20%) | 5 (Herbicidal ratio of 90% or more (almost completely withered)) | 5 (Herbicidal ratio of 90% or more (almost completely withered)) | – | – | –
9 | COc1ccc(-c2nnc3c(C(=O)Nc4nnc(C)o4)ccc(C(F)(F)F)n23)cc1 [1-016] | 3 (Herbicidal ratio of 40% or more and less than 70%) | 0 (Herbicidal ratio of 5% or less (almost no effect)) | 0 (Herbicidal ratio of 5% or less (almost no effect)) | 5 (Herbicidal ratio of 90% or more (almost completely withered)) | 5 (Herbicidal ratio of 90% or more (almost completely withered)) | – | – | –
10 | Cc1nnc(NC(=O)c2ccc(C(F)(F)F)n3c(-c4ccc(Cl)cc4)nnc23)o1 [1-017] | 2 (Herbicidal ratio of 20% or more and less than 40%) | 2 (Herbicidal ratio of 20% or more and less than 40%) | 0 (Herbicidal ratio of 5% or less (almost no effect)) | 5 (Herbicidal ratio of 90% or more (almost completely withered)) | 4 (Herbicidal ratio of 70% or more and less than 90%) | – | – | –
11 | COCCOCc1nnc2c(C(=O)Nc3nnc(C)o3)ccc(C(F)(F)F)n12 [1-019] | 4 (Herbicidal ratio of 70% or more and less than 90%) | 3 (Herbicidal ratio of 40% or more and less than 70%) | 3 (Herbicidal ratio of 40% or more and less than 70%) | 5 (Herbicidal ratio of 90% or more (almost completely withered)) | 5 (Herbicidal ratio of 90% or more (almost completely withered)) | – | – | –
12 | Cc1nnc(NC(=O)c2ccc(C(F)(F)F)n3c(COCC(F)(F)F)nnc23)o1 [1-020] | 2 (Herbicidal ratio of 20% or more and less than 40%) | 2 (Herbicidal ratio of 20% or more and less than 40%) | 2 (Herbicidal ratio of 20% or more and less than 40%) | 4 (Herbicidal ratio of 70% or more and less than 90%) | 4 (Herbicidal ratio of 70% or more and less than 90%) | – | – | –
13 | CCC(C)c1nnc2c(C(=O)Nc3nnc(C)o3)ccc(C(F)(F)F)n12 (centres unmarked) [1-021] | 4 (Herbicidal ratio of 70% or more and less than 90%) | 4 (Herbicidal ratio of 70% or more and less than 90%) | 3 (Herbicidal ratio of 40% or more and less than 70%) | 5 (Herbicidal ratio of 90% or more (almost completely withered)) | 5 (Herbicidal ratio of 90% or more (almost completely withered)) | – | – | –
14 | Cc1cc(-c2nnc3c(C(=O)Nc4nnc(C)o4)ccc(C(F)(F)F)n23)no1 [1-022] | 2 (Herbicidal ratio of 20% or more and less than 40%) | 2 (Herbicidal ratio of 20% or more and less than 40%) | 0 (Herbicidal ratio of 5% or less (almost no effect)) | 5 (Herbicidal ratio of 90% or more (almost completely withered)) | 4 (Herbicidal ratio of 70% or more and less than 90%) | – | – | –
15 | CCCc1nnc2c(C(=O)Nc3nnc(C)o3)ccc(C(F)(F)F)n12 [1-024] | 4 (Herbicidal ratio of 70% or more and less than 90%) | 1 (Herbicidal ratio of 5% or more and less than 20%) | 0 (Herbicidal ratio of 5% or less (almost no effect)) | 5 (Herbicidal ratio of 90% or more (almost completely withered)) | 4 (Herbicidal ratio of 70% or more and less than 90%) | – | – | –
16 | Cc1nnc(NC(=O)c2ccc(C(F)(F)F)n3c(C4CCCC4)nnc23)o1 [1-026] | 3 (Herbicidal ratio of 40% or more and less than 70%) | 1 (Herbicidal ratio of 5% or more and less than 20%) | 0 (Herbicidal ratio of 5% or less (almost no effect)) | 4 (Herbicidal ratio of 70% or more and less than 90%) | 5 (Herbicidal ratio of 90% or more (almost completely withered)) | – | – | –
